Literature values as cited in article PMC8198792, “Prediction of Anticancer Peptides with High Efficacy and Low Toxicity by Hybrid Model Based on 3D Structure of Peptides” (International Journal of Molecular Sciences, 2021).
Like-named read-outs stand apart in the source and are kept apart here.

How the values were obtained:
[1] = system: erythrocytes; conditions: cited from earlier work
Description: Supplement ijms-22-05630-s001.zip/Hemloytic Peptides(seguence).xlsx, sheet "HD1" | column: Activity || Supplement ijms-22-05630-s001.zip/Hemloytic Peptides(seguence).xlsx, sheet "HD2" | column: Activity || Supplement ijms-22-05630-s001.zip/Hemloytic Peptides(seguence).xlsx, sheet "HD3" | column: Activity

[2] = system: cancer cell lines; parameters: method as in 6 sources, ref CancerPPD [45] and SATPdb ||| ref CancerPPD/SATPdb ||| ref CancerPPD, SATPdb, Swissprot (PDB) ||| ref CancerPPD/SATPdb/Swissprot(PDB) ||| ref CancerPPD / SATPdb ||| ...; conditions: cited from earlier work
Description: Supplement ijms-22-05630-s001.zip/ACPs(seguence).xlsx, sheet "D1" | column: Activity || Supplement ijms-22-05630-s001.zip/ACPs(seguence).xlsx, sheet "D2" | column: Activity || Supplement ijms-22-05630-s001.zip/ACPs(seguence).xlsx, sheet "D3" | column: Activity || (+ 2 further places)

[3] = hemolytic peptides dataset HD3, 1 = hemolytic (positive set), 0 = non-hemolytic (negative set), labels taken from databases, ref Hemolytik/SATPdb
[4] = natural hemolytic peptide dataset HD1, label collected from databases, ref Hemolytik [49], SATPdb [34]
[5] = ACPs dataset D1, label 1 = ACP, 0 = non-ACP (non-anticancer AMPs from SATPdb), ref CancerPPD/SATPdb
[6] = ACPs dataset D4 (sheet "D4"), label 1 = ACP (CancerPPD ID), 0 = non-ACP (non-anticancer AMP, SATPdb ID), ref CancerPPD [45] and SATPdb
[7] = ACPs dataset D3 (sheet "D3"), label 1 = ACP, 0 = non-ACP, ref CancerPPD/SATPdb
[8] = ACPs dataset D4 (sheet "D4"), label 1 = ACP, 0 = non-ACP, ref CancerPPD / SATPdb
[9] = ACPs dataset D5, sheet "D5", label 1 = ACP, 0 = non-ACP, ref CancerPPD [45] and SATPdb
[10] = ACPs dataset D3 (supplement sheet "D3"), 1 = ACP, 0 = non-ACP, ref CancerPPD [45] and SATPdb
[11] = Hemolytic peptides dataset HD2, label 1 = hemolytic, 0 = non-hemolytic, ref Hemolytik/SATPdb
[12] = ACPs dataset D1, 1 = ACP (positive), 0 = non-ACP (negative), label taken from databases, ref CancerPPD [45] and SATPdb

Substance	Activity [1, 3]	Activity [1]	Activity [2, 7]	Activity [2, 8]	Activity [2, 9]	further results
PICKRNGLPVCGETCTLGTCYTQGCTCSW [satpdb10279, hemolytic peptide, dataset HD1]	1	–	–	–	–	Activity (dataset HD1, hemolytic 1 / non-hemolytic 0) [1, 4]: 1; Activity [2, 5]: 0; Activity [2, 6]: 0
FRPKVTITIQGSARF [satpdb11995]	–	0	0	0	0	–
VKLKVyPLKVKLyP [satpdb10236]	–	1	–	0	0	Activity [2, 10]: 0
FLSTIWNGIKSLL [satpdb12436]	1	–	0	0	0	Activity [1, 11]: 1
KWFKKIPKFLHLAKKF [compound 1150]	1	–	–	–	–	Activity [1, 11]: 1; Activity [2, 10]: 1; Activity [2, 6]: 1; Activity ([2]; ACPs dataset D5 (sheet "D5"), label 1 = ACP (positive set), 0 = non-ACP (negative set), ref CancerPPD [45] and SATPdb): 1
GLKEIFKAGLGSLVKGIAAHVAS [satpdb12238]	–	1	0	–	–	–
QPTRRPRPGTGPGRRPRPRPRP [satpdb11920, non-hemolytic peptide, dataset HD1]	–	0	–	–	–	Activity (dataset HD1, hemolytic 1 / non-hemolytic 0) [1]: 0; Activity [2, 5]: 0; Activity [2, 6]: 0
ILPFKFPFFPFRR [satpdb11100]	1	–	–	0	0	Activity [1, 11]: 1; Activity [2, 10]: 0
CGESCVWIPCTITALAGCKCKSKVCYNSIP [satpdb10149, hemolytic peptide, dataset HD1]	1	–	–	–	–	Activity (dataset HD1, hemolytic 1 / non-hemolytic 0) [1, 4]: 1; Activity [2, 5]: 0; Activity [2, 6]: 0
VSWKKSLGKIIKVVK [satpdb13183]	1	–	0	0	0	Activity [1, 11]: 1
RRWPWWPWKWPLI [satpdb10003]	–	1	–	0	0	Activity [2, 10]: 0
FLPLIGRVLSGIA [satpdb10103]	–	1	–	0	0	Activity [2, 10]: 0
CGESCVFIPCISTLLGCSCKNKVCYRNGVIP [satpdb11124, hemolytic peptide, dataset HD1]	1	–	–	–	–	Activity (dataset HD1, hemolytic 1 / non-hemolytic 0) [1, 4]: 1; Activity [2, 5]: 0; Activity [2, 6]: 0
RFGRFLRKIRRFRPKVTITIQGSARFG [satpdb11815, hemolytic peptide, dataset HD1]	–	1	–	–	–	Activity (dataset HD1, hemolytic 1 / non-hemolytic 0) [1]: 1; Activity [2, 5]: 0; Activity [2, 6]: 0
VKLGVyPLKVKLyP [satpdb12769]	–	1	0	0	0	–
LLIILKKKWKKQAKAKSK [satpdb13450]	1	–	0	0	0	Activity [1, 11]: 1
GLLGPLLKIAAKVGKKLL [satpdb11754]	–	1	–	0	0	Activity [2, 10]: 0
KEKLKLKCKAPKCYNDKLACT [satpdb13157, non-hemolytic peptide, dataset HD1]	–	0	–	0	–	Activity (dataset HD1, hemolytic 1 / non-hemolytic 0) [1]: 0; Activity [2, 5]: 0
KWFRVYRGIYRRR [satpdb13764]	–	0	0	0	0	–
ILPFKFPFPFRR [satpdb12286]	–	1	0	0	0	–

Substance	Activity [1, 3]	Activity [1]	Activity [2, 7]	Activity [2, 8]	Activity [2, 9]	further results
LLIILRRRWRRQARARSR [satpdb11798]	–	1	–	0	0	Activity [2, 10]: 0
ILPKKKPWWPWRR [satpdb13640]	–	1	0	0	0	–
KWKKPLLKKLLKKL [satpdb12744]	–	1	0	0	0	–
LLIILRRRWRKQAKAKSK [satpdb12920]	–	1	0	0	0	–
FQWQRNIRKVR [satpdb14534]	–	0	0	0	0	–
AKKVFKRLEKLFSKIQNDK [satpdb11343]	–	0	–	0	0	Activity [2, 10]: 0
VKLKVyPLKvKLyP [satpdb12258]	1	–	0	0	0	Activity [1, 11]: 1
RLKELITTGGQKIGEKIRRIGQRIKDFFKNLQPREEKS [satpdb11766, hemolytic peptide, dataset HD1]	–	1	–	–	–	Activity (dataset HD1, hemolytic 1 / non-hemolytic 0) [1]: 1; Activity [2, 5]: 0; Activity [2, 6]: 0
GIGKFLHTLKTFGKKWVGEIMNS [satpdb13533]	–	1	0	0	0	–
GLGKFLHSAKRFGKAFVGEAMNS [satpdb13009]	–	1	0	0	0	–
VCGETCFGGTCNTPGCSCTWPICTRDGLP [satpdb10452, hemolytic peptide, dataset HD1]	1	–	–	–	–	Activity (dataset HD1, hemolytic 1 / non-hemolytic 0) [1, 4]: 1; Activity [2, 5]: 0; Activity [2, 6]: 0
KfKLKQ [satpdb10387]	0	–	–	0	0	Activity [1, 11]: 0; Activity [2, 10]: 0
FLPILGKLLSGIL [satpdb10106]	1	–	–	0	0	Activity [1, 11]: 1; Activity [2, 10]: 0
VFQFLGKIIHHVGNFVHGFSHVF [satpdb12167, hemolytic peptide, dataset HD1]	1	–	–	–	–	Activity (dataset HD1, hemolytic 1 / non-hemolytic 0) [1, 4]: 1; Activity [2, 5]: 0; Activity [2, 6]: 0
KKVVFKVKFKK [satpdb13401]	–	0	0	0	0	–
LNWGALLKHLLK [satpdb12233]	–	1	0	0	0	–
RWSVYAYVRVRGVLVRYRRSW [satpdb10414, hemolytic peptide, dataset HD1]	–	1	–	–	–	Activity (dataset HD1, hemolytic 1 / non-hemolytic 0) [1]: 1; Activity [2, 12]: 0; Activity [2, 6]: 0
kklfkkILKYL [satpdb10342]	0	–	–	0	0	Activity [1, 11]: 0; Activity [2, 10]: 0
GFLSILKKVLAKVMAHMK [satpdb13478]	1	–	0	0	0	Activity [1, 11]: 1
GLWDTIKQAGKKFFLNVLDKIRCKVAGGCRT [satpdb11099, hemolytic peptide, dataset HD1]	1	–	–	–	–	Activity (dataset HD1, hemolytic 1 / non-hemolytic 0) [1, 4]: 1; Activity [2, 12]: 0; Activity [2, 6]: 0
